# “And” between values parts separate entries of the source, which are not always exact repeats. Equal entries are not always repeated. “Also recorded” adds a separate entry of the source.
# Experiments:
# COX–2 protein [1] = experiment: COX–2 expression in LPS stimulated primary human monocytes (Western Blot); settings: 24 h, vs. control
# Method: (§1) Primary human monocytes were freshly isolated from human blood. Blood was collected from healthy human subjects after written informed consent was obtained. […] After 24 h, the supernatant was sampled for LC-MS and cells were collected for the COX–2 expression analysis by Western Blotting.
# COX–2 [2] = biological target: T1, COX–2 (Homo sapiens, UniProt P35354); experiment: PGE2 formation in HCA–7 cells (24 h, LC-MS); type: cell-based; settings: for IC50 (95% CI), HCA-7 cell line: calculated based on PGE2, n = 3, 24 h; for changes of PGE2 formation in HCA–7 cells: non-cytotoxic concentrations, 24 h
# T1 sequence (P35354 18-604): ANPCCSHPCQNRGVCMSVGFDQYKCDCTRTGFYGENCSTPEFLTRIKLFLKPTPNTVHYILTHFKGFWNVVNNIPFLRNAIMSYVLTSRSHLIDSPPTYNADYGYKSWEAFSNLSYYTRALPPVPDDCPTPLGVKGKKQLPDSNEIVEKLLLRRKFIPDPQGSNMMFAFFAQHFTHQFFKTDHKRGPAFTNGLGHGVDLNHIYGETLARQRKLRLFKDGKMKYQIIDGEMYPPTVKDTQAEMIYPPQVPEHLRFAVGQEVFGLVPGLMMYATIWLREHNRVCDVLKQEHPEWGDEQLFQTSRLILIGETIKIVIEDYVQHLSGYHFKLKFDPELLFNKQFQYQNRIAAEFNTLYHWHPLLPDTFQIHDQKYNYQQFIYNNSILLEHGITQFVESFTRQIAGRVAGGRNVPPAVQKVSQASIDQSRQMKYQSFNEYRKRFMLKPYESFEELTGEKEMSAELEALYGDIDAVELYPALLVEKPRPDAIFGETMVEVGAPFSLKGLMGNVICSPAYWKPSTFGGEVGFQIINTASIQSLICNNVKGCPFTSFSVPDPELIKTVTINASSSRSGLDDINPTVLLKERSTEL
# Method: (§2) The in vitro assays were performed as described [6, 16, 18] and COX metabolites were quantified by LC-MS [18].
# (§3) HCA–7 cells were incubated with sub-cytotoxic concentrations of the polyphenols dissolved in Tris buffered DMEM medium. Cytotoxicity of the polyphenols was evaluated by the lactate dehydrogenase leakage test (Cyto-Tox-ONE, Promega Mannheim, Germany). After 24 h the supernatant was collected for LC-MS analysis and the cells were harvested to analyze the COX–2 expression by Western Blotting.
# After 24 h, the supernatant was sampled for LC-MS and cells were collected for the COX–2 expression analysis by Western Blotting.
# (§4) GraphPad Prism 5.0 (GraphPad Software, San Diego, USA) was used for data analysis, the fitting of dose response curves and calculation of the IC50 values. Statistical differences were determined by Dunnetts test (LPS vs. other groups).
# COX–2 [3] = settings: cited from earlier work
# [4] = cited from earlier work
# ovine recombinant COX–1 = biological target: T2, ovine recombinant COX–1 (Ovis aries, UniProt P05979); experiment: cell-free COX–1 enzyme assay (PGE2 formation, LC-MS); type: biochemical; parameters: purchased Cayman Chemicals/ Biomol, Hamburg, Germany; settings: for IC50 / IC50 (95% CI), COX–1 enzyme assay: calculated based on PGE2, n = 3; for IC50: read-out: IC50 (95% CI), COX–1 enzyme assay
# T2 sequence (P05979 25-600): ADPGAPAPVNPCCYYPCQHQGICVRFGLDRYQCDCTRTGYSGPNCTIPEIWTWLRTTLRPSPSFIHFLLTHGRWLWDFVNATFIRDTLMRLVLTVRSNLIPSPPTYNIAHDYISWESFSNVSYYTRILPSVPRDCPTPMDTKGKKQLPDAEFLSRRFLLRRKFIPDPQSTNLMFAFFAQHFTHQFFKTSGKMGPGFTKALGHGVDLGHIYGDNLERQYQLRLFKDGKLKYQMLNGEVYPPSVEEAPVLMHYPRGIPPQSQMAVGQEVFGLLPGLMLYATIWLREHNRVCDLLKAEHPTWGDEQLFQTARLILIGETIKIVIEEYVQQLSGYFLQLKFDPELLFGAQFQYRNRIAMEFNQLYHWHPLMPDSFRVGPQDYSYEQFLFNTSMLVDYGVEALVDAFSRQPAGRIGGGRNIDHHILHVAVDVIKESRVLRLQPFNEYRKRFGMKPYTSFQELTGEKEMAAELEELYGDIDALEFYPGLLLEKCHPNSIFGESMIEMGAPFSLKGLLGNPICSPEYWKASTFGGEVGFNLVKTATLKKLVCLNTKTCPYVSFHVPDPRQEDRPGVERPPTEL
# Method: as §2, §1, §4
# COX–2 protein [5] = settings: cited from earlier work
# COX–2 [6] = biological target: T1, COX–2; experiment: PGE2 formation in LPS stimulated primary human monocytes (24 h, LC-MS); type: cell-based; settings: for IC50: read-out: IC50 (95% CI), primary monocytes
# Method: as §2, §1, §4
# COX–2 protein [7] = experiment: COX–2 expression in HCA–7 cells (Western Blot); type: cell-based, human; settings: 24 h, vs. control
# Method: as §3
# COX–2 [8] = biological target: T1, COX–2; experiment: cell-free COX–2 enzyme assay (PGE2 formation, LC-MS); type: biochemical; settings: for IC50 / IC50 (95% CI), COX–2 enzyme assay: calculated based on PGE2, n = 3; for IC50: read-out: IC50 (95% CI), COX–2 enzyme assay
# Method: as §2, §1, §4
# [9] = LPS stimulated, calculated based on PGE2, n = 3, 24 h
Compound,"IC50 (95% CI), HCA-7 cell line (COX–2 [2])",IC50 (ovine recombinant COX–1) [µM],IC50 (COX–2 [8]) [µM],"IC50 (95% CI), COX–1 enzyme assay (ovine recombinant COX–1)",IC50 (COX–2 [6]; [9]) [µM],"IC50 (95% CI), COX–2 enzyme assay (COX–2 [8])","COX-2 Expression, primary monocytes (COX–2 protein [1])",changes of PGE2 formation in HCA–7 cells (COX–2 [2]),"effect on COX–1 dependent PGE2 formation, cell-free enzyme assay (ovine recombinant COX–1)","COX-2 Expression, HCA-7 cell line (COX–2 protein [7])","effect on COX–2 dependent PGE2 formation, cell-free enzyme assay (COX–2 [8])","COX–2 protein levels, LPS stimulated RAW 264.7 cells (COX–2 protein [5])",other results
"O=C(O[C@@H]1Cc2c(O)cc(O)cc2O[C@@H]1c1cc(O)c(O)c(O)c1)c1cc(O)c(O)c(O)c1 [EGCG, epigallocatechingallat]",no effect (up to 10 μM),17,32,,,,Decreased COX–2 protein levels and 10 μM:COX–2 ↓,no or only slight,dose-dependently decreased; also recorded: inhibited,no effect(up to 10 μM),dose-dependently decreased; also recorded: inhibited,,"PGE2 formation / levels, RAW 264.7 cells (COX–2 [3]): lack of effect; maximal plasma concentrations ([4]; in vivo): 0.13 to 0.33 µM; COX–2 (protein) levels, RAW 264.7 cells (COX–2 protein [5]): slight increase; IC50 (95% CI), primary monocytes (COX–2 [6]; [9]): no effect(up to 10 μM)"
"COc1c(O)cc(O)c2c(=O)cc(-c3ccccc3)oc12 [Wogonin, wogonin]",,,,no effect (up to 100 μM),,,,,no effect,,,,"IC50 (COX–2 [3]; read-out: IC50, LPS stimulated murine macrophages): 0.3 µM"
hopeaphenol,no effect (up to 1 μM),4,22,,,,1 μM: COX–2 ↓,no or only slight,dose-dependently decreased; also recorded: inhibited,no effect (up to 1 μM),dose-dependently decreased; also recorded: inhibited,,"COX-2 Expression, primary monocytes (COX–2 protein [1]; listed as hopeaphenol): Decreased COX–2 protein levels; inhibition, primary monocytes (COX–2 [6]; up to 1 μM): inhibition < 50% (up to 1 μM)"

# Second part, led by results:
"IC50 (95% CI), HCA-7 cell line (COX–2 [2])",IC50 (ovine recombinant COX–1) [µM],IC50 (COX–2 [8]) [µM],"IC50 (95% CI), COX–1 enzyme assay (ovine recombinant COX–1)",IC50 (COX–2 [6]; [9]) [µM],"IC50 (95% CI), COX–2 enzyme assay (COX–2 [8])",Compound,"COX-2 Expression, primary monocytes (COX–2 protein [1])",changes of PGE2 formation in HCA–7 cells (COX–2 [2]),"effect on COX–1 dependent PGE2 formation, cell-free enzyme assay (ovine recombinant COX–1)","COX-2 Expression, HCA-7 cell line (COX–2 protein [7])","effect on COX–2 dependent PGE2 formation, cell-free enzyme assay (COX–2 [8])","COX–2 protein levels, LPS stimulated RAW 264.7 cells (COX–2 protein [5])",other results
,,,no effect (up to 100 μM),29,no effect (up to 100 μM),"O=C1C[C@@H](c2ccc(O)cc2)Oc2cc(O)cc(O)c21 [Naringenin, naringenin]","100, 30 μM:COX–2 ↓",affected,no effect,100 μM:COX–2 ↓,no effect,decreased COX–2 protein levels,"COX-2 Expression, primary monocytes (COX–2 protein [1]; listed as naringenin): Decreased COX–2 protein levels; inhibition at 100 µM (COX–2 [2]; HCA-7, 100 μM, read-out: inhibition, HCA-7 cell line): 53%; plasma peak level, total naringenin (free and conjugated form) ([4]; humans, ingestion of grapefruit juice (0.2 g total naringenin)): 6 µM; COX-2 Expression, HCA-7 cell line (COX–2 protein [7]; listed as naringenin): decreased COX–2 expression"
,,,no effect (up to 100 μM),24,no effect (up to 100 μM),"COc1ccc(-c2cc(=O)c3c(OC)c(OC)c(OC)c(OC)c3o2)cc1OC [Nobiletin, nobiletin]",no effect(up to 100 μM),no or only slight; also recorded: affected,no effect,100 μM:COX–2 ↓,no effect,decreased COX–2 protein levels,"inhibition, HCA-7 cell line (COX–2 [2]; up to 100 μM): inhibition < 50%(up to 100 μM); COX-2 Expression, HCA-7 cell line (COX–2 protein [7]; listed as nobiletin): decreased COX–2 expression"

# From PMC4594923, “Food Polyphenols Fail to Cause a Biologically Relevant Reduction of COX-2 Activity” (PLoS ONE, 2015)
